Active and inactive are the calls of the source.
What was measured:
Cytochrome P450 2C9 = Cytochrome P450 2C9 (Homo sapiens, UniProt P11712)
Cytochrome P450 2D6 = Cytochrome P450 2D6 (Homo sapiens, UniProt P10635);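 note: CYP2D6 member of a cytochrome P450 panel assay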
[1] = target: Sphingosine 1-phosphate receptor 5 (Homo sapiens, UniProt Q9H228); test: Late stage counterscreen assay for S1P4 antagonists: Fluorescence dose response cell-based screening assay for antagonists of the Sphingosine 1-Phosphate Receptor 5 (S1P5). [Related pubchem assays (depositor defined):AID1510, AID1524, AID1692, AID1853, AID2332, AID489009, AID489017]; type: functional
[2] = target: Sphingosine 1-phosphate receptor 3 (Homo sapiens, UniProt Q99500); test: Late stage counterscreen assay for S1P4 antagonists: Fluorescence dose response cell-based screening assay for antagonists of the Sphingosine 1-Phosphate Receptor 3 (S1P3). [Related pubchem assays (depositor defined):AID1510, AID1524, AID1692, AID1853, AID2332, AID489009, AID489017]; type: functional
[3] = target: Sphingosine 1-phosphate receptor 1 (Homo sapiens, UniProt P21453); test: Late stage counterscreen assay for S1P4 antagonists: Fluorescence dose response cell-based screening assay for antagonists of the Sphingosine 1-Phosphate Receptor 1 (S1P1). [Related pubchem assays (depositor defined):AID1510, AID1524, AID1692, AID1853, AID2332, AID489009, AID489017]; type: functional
[4] = target: Sphingosine 1-phosphate receptor 2 (Homo sapiens, UniProt O95136); test: Late stage counterscreen assay for S1P4 antagonists: Fluorescence dose response cell-based screening assay for antagonists of the Sphingosine 1-Phosphate Receptor 2 (S1P2). [Related pubchem assays (depositor defined):AID1510, AID1524, AID1692, AID1853, AID2332, AID489009, AID489017]; type: functional
[5] = target: T1, Dual specificity protein phosphatase 3 (Homo sapiens, UniProt P51452); test: VHR1 phosphatase inhibitors, primary screen, biochemical, absorbance, uHTS (AID 1654)
[6] = target: T1, Dual specificity protein phosphatase 3; test: VHR1 phosphatase inhibitors, biochemical (AID 1878)
[7] = target: T2, Dual specificity protein phosphatase 6 (Rattus norvegicus, UniProt Q64346); test: inhibition of rat DUSP6 enzyme activity – biochemical, in vitro, primary screen (AID 425)
T2 sequence (Q64346 whole entry): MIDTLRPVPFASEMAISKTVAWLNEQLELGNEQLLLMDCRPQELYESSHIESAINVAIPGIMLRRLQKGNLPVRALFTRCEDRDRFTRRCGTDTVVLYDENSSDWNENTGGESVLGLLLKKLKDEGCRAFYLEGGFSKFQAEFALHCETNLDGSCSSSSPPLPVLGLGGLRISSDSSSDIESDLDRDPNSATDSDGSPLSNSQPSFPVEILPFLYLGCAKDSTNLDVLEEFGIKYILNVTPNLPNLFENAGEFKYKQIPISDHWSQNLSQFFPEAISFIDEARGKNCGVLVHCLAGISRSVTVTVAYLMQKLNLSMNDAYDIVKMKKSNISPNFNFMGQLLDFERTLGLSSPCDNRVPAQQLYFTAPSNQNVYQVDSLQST

[8] = target: T1, Dual specificity protein phosphatase 3; test: SAR VHR1 absorbance Assay for In Vitro dose response studies. [Related pubchem assays (depositor defined):AID1654, AID1661, AID1878, AID1992, AID2004]
[9] = target: T1, Dual specificity protein phosphatase 3; test: SAR VHR1 Fluorescent Assay for In Vitro dose response studies. [Related pubchem assays (depositor defined):AID1654, AID1661, AID1878, AID1992, AID2004, AID2070, AID2085]; type: functional
[10] = target: T3, Tyrosine-protein phosphatase non-receptor type 7 (Homo sapiens, UniProt P35236); test: redox-active compounds inhibiting HePTP phosphatase – biochemical, fluorescence, mechanism study (AID 2068); type: functional
T3 sequence (P35236 whole entry): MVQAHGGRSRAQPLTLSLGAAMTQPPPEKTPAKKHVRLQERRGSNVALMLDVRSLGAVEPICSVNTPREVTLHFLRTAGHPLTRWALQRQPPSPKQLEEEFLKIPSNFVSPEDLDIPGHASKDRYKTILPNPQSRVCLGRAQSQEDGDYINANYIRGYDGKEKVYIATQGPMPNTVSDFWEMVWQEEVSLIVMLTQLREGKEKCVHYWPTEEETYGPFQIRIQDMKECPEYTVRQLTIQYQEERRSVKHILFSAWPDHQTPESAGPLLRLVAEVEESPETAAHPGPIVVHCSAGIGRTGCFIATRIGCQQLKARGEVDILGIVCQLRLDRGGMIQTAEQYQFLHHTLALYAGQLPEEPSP

[11] = target: T2, Dual specificity protein phosphatase 6; test: SAR analysis of inhibitors of MKP-3 - Set 2. [Related pubchem assays (depositor defined):AID1055, AID1661, AID425, AID553, AID566]; type: functional
[12] = target: T3, Tyrosine-protein phosphatase non-receptor type 7; test: inhibition of hematopoietic tyrosine phosphatase HePTP – biochemical, set 2, SAR follow-up (AID 449736); type: functional
[13] = target: T3, Tyrosine-protein phosphatase non-receptor type 7; test: SAR analysis of chemical inhibitors of HePTP using a Fluorescent assay - Set 2. [Related pubchem assays (depositor defined):AID1059, AID1077, AID1661, AID2085, AID521]; type: functional
[14] = target: T1, Dual specificity protein phosphatase 3; test: SAR VHR1 Fluorescent Assay for In Vitro dose response studies Set 2. [Related pubchem assays (depositor defined):AID1654, AID1661, AID1878]; type: functional
[15] = target: T2, Dual specificity protein phosphatase 6; type: functional
[16] = restored growth of temperature-sensitive Burl-1 yeast – whole organism, S. cerevisiae, Burl-1 ts mutant, luminescence, counter-screen for SUMOylation pathway inhibitor project, dose response (AID 463199); type: functional
[17] = target: Intestinal-type alkaline phosphatase (Mus musculus, UniProt P24822); test: PubChem AID 488874; type: functional
[18] = target: T4, Intestinal-type alkaline phosphatase (Homo sapiens, UniProt P09923); test: inhibition of human intestinal alkaline phosphatase – biochemical, luminescent, uHTS hits, set 2, dose response (AID 488793); type: functional
[19] = target: T4, Intestinal-type alkaline phosphatase; test: Dose Response confirmation of uHTS hits from a small molecule inhibitors of human intestinal alkaline phosphatase via a luminescent assay. [Related pubchem assays (depositor defined):AID2544, AID2574]; type: functional
Nonstructural protein 1 = Nonstructural protein 1 (Influenza A virus, UniProt Q194T2); type: functional, Influenza A virus (A/California/07/2009(H1N1))
[20] = target: T5, Alkaline phosphatase, tissue-nonspecific isozyme (Homo sapiens, UniProt P05186); test: inhibition of tissue-nonspecific alkaline phosphatase – biochemical, dose response (AID 488882); type: functional
T5 sequence (P05186 whole entry): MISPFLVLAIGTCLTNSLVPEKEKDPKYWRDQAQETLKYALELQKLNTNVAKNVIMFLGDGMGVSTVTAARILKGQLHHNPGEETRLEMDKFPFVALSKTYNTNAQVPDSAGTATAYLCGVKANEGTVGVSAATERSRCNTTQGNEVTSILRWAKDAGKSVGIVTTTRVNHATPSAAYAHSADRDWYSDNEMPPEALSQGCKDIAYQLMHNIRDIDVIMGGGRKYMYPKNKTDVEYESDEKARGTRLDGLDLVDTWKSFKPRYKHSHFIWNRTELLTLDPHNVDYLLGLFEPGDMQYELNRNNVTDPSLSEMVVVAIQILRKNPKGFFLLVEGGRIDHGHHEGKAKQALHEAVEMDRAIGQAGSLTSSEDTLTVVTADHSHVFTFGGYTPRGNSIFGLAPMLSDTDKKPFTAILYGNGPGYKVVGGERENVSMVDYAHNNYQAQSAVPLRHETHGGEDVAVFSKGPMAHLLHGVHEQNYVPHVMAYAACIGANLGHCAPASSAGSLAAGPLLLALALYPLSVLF

Protein RecA = target: T6, Protein RecA (Mycobacterium tuberculosis, UniProt P9WHJ3); test: Fluorescence Cell-Free Homogeneous Dose Retest to Identify Inhibitors of RecA-Intein Splicing Activity. [Related pubchem assays (depositor defined):AID2097, AID2223, AID489010, AID492950]; type: functional
T6 sequence (P9WHJ3 whole entry): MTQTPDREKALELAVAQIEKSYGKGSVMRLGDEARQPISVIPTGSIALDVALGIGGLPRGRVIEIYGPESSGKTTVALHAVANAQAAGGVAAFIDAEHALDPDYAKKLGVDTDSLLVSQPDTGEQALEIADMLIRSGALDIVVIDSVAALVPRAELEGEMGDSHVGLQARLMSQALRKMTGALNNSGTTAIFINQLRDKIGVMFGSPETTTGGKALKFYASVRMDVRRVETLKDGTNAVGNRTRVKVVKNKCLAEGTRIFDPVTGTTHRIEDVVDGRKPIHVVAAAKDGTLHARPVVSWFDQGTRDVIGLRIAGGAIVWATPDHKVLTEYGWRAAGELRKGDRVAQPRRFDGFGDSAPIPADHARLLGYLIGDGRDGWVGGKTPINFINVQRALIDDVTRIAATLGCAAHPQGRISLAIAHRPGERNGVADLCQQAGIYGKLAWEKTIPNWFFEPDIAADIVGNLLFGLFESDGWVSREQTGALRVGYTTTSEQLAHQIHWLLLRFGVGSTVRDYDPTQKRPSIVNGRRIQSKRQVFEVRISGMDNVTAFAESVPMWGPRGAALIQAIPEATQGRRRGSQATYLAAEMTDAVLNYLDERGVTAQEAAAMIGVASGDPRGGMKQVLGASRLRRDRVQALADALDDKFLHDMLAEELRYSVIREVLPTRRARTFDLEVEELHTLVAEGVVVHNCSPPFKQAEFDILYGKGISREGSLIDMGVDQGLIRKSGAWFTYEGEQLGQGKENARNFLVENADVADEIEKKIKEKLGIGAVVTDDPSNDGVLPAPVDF

Protein skinhead-1 = target: T7, Protein skinhead-1 (Caenorhabditis elegans, UniProt P34707); type: functional
T7 sequence (P34707 whole entry): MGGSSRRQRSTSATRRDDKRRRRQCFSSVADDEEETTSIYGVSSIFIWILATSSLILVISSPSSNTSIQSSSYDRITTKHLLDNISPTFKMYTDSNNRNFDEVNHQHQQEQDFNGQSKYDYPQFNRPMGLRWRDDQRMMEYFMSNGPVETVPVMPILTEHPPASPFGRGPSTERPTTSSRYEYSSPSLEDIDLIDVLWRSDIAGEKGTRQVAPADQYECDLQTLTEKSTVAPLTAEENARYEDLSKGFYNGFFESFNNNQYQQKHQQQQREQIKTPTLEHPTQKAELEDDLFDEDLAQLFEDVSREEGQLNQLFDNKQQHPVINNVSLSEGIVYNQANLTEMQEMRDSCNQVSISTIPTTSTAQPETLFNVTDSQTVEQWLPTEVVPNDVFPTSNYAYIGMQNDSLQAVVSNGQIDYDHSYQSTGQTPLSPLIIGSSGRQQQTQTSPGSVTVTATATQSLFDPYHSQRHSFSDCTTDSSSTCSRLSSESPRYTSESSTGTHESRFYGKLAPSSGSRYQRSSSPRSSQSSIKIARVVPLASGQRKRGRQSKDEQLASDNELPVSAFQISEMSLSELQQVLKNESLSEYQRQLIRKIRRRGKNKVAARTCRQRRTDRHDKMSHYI

SUMO E1/E2 = SUMO E1/E2 (Homo sapiens, UniProt P63279+Q9UBE0+Q9UBT2); test: SAR analysis of SUMOylation using HTRF in an in-Vitro dose response assay. [Related pubchem assays (depositor defined):AID2006, AID2011, AID2018, AID2069, AID2658]; type: functional
[21] = target: T8, Voltage-gated N-type calcium channel alpha-1B subunit/Amyloid beta A4 precursor protein-binding family A member 1 (Homo sapiens, UniProt Q00975+Q02410); test: disruptors of Mint-PDZ/N-type channel peptide interaction – biochemical, HTRF, set 2, SAR follow-up (AID 434980); type: functional
[22] = target: T8, Voltage-gated N-type calcium channel alpha-1B subunit/Amyloid beta A4 precursor protein-binding family A member 1; test: disruptors of Mint-PDZ/N-type channel peptide interaction – biochemical, HTRF, SAR follow-up (AID 2489); type: functional

T1 sequence (P51452 whole entry): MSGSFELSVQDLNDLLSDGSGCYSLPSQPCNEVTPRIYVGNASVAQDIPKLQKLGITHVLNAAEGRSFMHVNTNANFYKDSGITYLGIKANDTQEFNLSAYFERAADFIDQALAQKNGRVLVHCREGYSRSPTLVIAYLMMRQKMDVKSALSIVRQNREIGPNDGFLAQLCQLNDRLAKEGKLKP
T8 sequence (Q00975 whole entry): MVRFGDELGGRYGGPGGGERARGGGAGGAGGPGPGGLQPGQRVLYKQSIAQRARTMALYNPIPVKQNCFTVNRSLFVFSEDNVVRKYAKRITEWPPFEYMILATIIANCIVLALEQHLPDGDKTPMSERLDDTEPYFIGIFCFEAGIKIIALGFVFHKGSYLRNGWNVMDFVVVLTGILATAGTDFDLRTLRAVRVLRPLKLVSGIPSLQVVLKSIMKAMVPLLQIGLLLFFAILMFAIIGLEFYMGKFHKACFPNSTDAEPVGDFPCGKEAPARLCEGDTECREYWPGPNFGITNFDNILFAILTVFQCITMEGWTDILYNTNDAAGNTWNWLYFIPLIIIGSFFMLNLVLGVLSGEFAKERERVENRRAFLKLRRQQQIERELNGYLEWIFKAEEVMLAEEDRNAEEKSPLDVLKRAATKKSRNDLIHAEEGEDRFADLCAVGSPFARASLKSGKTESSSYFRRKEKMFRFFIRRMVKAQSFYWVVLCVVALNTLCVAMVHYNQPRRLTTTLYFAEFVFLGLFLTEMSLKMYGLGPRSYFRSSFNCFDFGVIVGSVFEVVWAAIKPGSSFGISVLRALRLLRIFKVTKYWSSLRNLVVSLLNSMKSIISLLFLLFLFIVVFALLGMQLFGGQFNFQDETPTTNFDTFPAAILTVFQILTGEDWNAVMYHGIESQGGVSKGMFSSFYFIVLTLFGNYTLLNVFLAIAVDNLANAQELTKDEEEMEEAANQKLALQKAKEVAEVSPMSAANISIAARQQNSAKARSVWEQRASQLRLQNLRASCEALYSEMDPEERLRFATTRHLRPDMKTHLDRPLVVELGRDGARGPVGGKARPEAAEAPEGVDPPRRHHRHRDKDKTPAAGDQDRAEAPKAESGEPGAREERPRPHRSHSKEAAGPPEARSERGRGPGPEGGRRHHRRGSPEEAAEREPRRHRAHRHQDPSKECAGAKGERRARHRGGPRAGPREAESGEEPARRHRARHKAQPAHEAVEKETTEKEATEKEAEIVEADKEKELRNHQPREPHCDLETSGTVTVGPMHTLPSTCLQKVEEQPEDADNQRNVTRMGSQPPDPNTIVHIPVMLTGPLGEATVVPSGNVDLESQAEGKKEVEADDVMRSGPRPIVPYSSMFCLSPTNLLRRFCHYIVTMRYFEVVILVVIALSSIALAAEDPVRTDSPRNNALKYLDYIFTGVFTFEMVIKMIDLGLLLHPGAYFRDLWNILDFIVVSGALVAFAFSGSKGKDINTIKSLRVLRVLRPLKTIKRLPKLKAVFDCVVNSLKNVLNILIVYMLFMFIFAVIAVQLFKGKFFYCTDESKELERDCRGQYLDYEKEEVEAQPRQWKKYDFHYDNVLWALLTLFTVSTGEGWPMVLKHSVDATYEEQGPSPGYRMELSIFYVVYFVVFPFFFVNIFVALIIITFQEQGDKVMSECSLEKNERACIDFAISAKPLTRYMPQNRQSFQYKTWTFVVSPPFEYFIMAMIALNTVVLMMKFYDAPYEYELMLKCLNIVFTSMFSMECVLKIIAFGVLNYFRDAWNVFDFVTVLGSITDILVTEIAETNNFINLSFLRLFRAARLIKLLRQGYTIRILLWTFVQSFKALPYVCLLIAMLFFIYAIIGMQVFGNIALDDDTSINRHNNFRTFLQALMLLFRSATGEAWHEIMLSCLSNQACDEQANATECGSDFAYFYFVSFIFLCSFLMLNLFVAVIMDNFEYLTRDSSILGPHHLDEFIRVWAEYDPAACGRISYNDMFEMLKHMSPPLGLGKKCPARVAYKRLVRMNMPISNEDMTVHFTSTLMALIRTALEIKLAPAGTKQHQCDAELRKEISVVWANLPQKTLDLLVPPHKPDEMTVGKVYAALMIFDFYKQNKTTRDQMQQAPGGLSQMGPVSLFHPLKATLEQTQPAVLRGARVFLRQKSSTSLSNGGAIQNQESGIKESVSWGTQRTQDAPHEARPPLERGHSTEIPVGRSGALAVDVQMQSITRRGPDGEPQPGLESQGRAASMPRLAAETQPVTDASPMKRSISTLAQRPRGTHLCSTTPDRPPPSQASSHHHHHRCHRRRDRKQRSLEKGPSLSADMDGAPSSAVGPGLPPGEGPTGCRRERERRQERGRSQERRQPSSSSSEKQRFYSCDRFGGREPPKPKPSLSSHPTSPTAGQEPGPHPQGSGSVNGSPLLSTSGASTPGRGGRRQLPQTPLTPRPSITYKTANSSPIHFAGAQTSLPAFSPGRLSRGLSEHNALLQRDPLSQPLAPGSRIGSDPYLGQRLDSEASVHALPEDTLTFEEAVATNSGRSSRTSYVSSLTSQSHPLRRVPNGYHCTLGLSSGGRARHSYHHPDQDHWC
T8 sequence (Q02410 whole entry): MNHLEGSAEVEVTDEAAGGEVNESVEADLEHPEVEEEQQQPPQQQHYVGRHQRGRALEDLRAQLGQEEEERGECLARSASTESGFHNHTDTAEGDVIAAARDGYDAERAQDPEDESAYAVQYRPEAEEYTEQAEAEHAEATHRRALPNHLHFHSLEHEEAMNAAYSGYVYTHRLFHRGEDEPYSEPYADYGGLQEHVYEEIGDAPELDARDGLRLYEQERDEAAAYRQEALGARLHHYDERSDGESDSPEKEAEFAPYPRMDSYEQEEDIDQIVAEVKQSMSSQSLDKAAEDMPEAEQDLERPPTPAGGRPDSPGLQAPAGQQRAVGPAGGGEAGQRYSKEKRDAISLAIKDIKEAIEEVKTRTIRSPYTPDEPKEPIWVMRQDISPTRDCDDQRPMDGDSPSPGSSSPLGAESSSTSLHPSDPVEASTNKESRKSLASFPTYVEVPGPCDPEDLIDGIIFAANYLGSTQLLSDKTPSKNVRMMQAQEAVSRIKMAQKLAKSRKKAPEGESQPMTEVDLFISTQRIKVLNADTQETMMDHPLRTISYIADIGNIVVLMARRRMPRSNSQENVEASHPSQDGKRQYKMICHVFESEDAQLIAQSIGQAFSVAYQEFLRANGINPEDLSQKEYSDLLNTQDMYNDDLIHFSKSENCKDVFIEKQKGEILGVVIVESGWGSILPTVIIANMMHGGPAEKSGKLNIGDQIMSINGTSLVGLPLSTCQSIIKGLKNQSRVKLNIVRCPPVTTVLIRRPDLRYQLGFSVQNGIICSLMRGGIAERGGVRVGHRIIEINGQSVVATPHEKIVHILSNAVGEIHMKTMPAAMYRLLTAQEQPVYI
T4 sequence (P09923 whole entry): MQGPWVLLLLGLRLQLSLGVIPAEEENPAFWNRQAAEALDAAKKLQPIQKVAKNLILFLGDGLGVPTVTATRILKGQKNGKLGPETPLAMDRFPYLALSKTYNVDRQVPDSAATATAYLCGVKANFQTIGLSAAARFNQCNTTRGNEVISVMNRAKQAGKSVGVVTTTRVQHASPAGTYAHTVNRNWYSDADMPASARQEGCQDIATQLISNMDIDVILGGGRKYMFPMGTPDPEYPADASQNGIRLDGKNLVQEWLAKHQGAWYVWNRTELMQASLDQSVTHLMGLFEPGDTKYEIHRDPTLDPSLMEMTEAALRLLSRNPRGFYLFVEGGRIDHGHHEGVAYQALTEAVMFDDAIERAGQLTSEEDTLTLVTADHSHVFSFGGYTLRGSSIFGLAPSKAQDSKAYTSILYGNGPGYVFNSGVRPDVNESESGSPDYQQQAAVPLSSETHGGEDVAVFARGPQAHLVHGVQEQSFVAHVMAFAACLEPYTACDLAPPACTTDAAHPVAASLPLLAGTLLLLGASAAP
Chain of Sphingosine 1-phosphate receptor 5 (Q9H228 whole entry): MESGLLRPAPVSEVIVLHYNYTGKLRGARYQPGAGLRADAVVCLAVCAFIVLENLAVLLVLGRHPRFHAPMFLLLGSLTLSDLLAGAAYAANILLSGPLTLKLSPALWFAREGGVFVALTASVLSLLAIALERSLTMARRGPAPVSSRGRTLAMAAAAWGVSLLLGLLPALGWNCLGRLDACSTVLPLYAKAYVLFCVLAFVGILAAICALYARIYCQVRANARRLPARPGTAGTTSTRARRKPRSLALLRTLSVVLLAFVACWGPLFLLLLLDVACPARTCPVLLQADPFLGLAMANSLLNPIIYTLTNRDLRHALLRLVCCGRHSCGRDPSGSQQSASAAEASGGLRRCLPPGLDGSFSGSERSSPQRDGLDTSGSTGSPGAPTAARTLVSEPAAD
Chain of Cytochrome P450 2C9 (P11712 whole entry): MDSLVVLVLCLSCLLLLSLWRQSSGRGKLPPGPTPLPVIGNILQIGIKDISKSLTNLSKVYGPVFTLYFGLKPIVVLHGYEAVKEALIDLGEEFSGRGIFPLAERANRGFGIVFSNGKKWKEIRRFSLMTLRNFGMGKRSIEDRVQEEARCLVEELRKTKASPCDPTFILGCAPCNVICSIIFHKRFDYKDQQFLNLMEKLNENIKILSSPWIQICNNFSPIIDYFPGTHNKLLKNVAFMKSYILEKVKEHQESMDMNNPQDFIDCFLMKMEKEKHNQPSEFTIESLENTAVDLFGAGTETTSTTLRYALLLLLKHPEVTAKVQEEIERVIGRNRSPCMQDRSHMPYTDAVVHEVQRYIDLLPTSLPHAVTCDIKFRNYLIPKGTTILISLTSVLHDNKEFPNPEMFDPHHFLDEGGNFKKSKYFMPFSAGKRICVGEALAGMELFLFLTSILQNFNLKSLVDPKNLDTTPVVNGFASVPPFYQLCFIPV
Chain of Nonstructural protein 1 (Q194T2 whole entry): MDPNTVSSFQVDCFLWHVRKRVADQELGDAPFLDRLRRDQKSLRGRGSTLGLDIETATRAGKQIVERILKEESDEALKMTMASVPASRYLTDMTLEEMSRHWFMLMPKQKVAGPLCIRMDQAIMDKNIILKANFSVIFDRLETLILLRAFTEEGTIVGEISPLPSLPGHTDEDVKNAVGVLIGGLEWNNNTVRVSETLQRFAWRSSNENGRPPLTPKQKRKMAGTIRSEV

Cc1nn(-c2ccccc2)c(Cl)c1/C=N/NC(=O)c1ccco1
AC50 (Cytochrome P450 2C9): 22.4 µM (inconclusive)
AC50 (Cytochrome P450 2D6): inconclusive

Cc1cscc1-c1ccc(C(=O)Nc2c(C)cccc2C)o1
IC50 [1]: > 25 µM (inactive)
IC50 [2]: > 25 µM (inactive)
IC50 [3]: > 25 µM (inactive)
IC50 [4]: > 25 µM (inactive)

NS(=O)(=O)c1ccc(NC(=S)NC2CCCCC2)cc1
IC50 [5]: 2.15 µM (active)
IC50 [6]: 3.49 µM (active)
IC50 [7]: > 158 µM (not active)
IC50 [8]: 0.704 µM (active)
IC50 [9]: > 99 µM (inactive)
IC50 [10]: 0.025 µM (active)
IC50 [11]: > 100 µM (inactive)
IC50 [12]: > 100 µM (inactive)
IC50 [13]: 1.27 µM (active)
IC50 [14]: 0.143 µM (active)
IC50 [15]: > 99 µM (inactive)

O=C1CC(c2cccc(Br)c2)C2=C(COC2=O)N1 (stereo not drawn)
AC50 [16]: 85 µM (active)

CC1=NN(Cc2ccccc2)C(=O)/C1=C\c1ccc(N(C)C)cc1
IC50 [17]: 35.1 µM (active)
IC50 [18]: 39.4 µM (active)
IC50 [19]: 16.8 µM (inactive)
IC50 (Nonstructural protein 1): 32.3 µM (active)
IC50 [20]: 46.7 µM (active)
EC50 (Protein RecA): > 380 µM (inactive)
IC50 (Protein skinhead-1): > 100 µM (inactive)

Cc1ccc(CNC(=O)COC(=O)c2cc(-c3ccco3)nc3ccccc23)cc1
IC50 (SUMO E1/E2): 6.5 µM (active)
IC50 [21]: 12.1 µM (active)
IC50 [22]: 18.1 µM (active)
